What all share (type): cell-based
The subject of assay [1] is HeLa (cervical cancer). Briefly: Antiproliferative activity (CCK-8 cell viability), HeLa. As to conditions: Homo sapiens, 72 h, read-out: Antiproliferative activity in cancerous cells, HELA (inhibition of cell growth); for inhibition at 3.3 µM: Compound concentration: 3.3 μM; for inhibition at 10 µM: Compound concentration: 10 μM. A digest of the protocol: (§1)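 Cells were seeded at 2,000-5,000/well (HeLa in MEM, HepG2 and SW480 in DMEM, A549 in F-12K, all with 10% FBS) and treated with compound at 3.3, 10 or 30 μM for 72 h at 37° C. CCK-8 was added for 4 h, absorbance was read at 450 nm, and viability was expressed relative to DMSO-treated wells.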

Assay [2] deals with SW480 (colon cancer). Briefly: Antiproliferative activity (CCK-8 cell viability), SW480. As to conditions: Homo sapiens, 72 h, read-out: Antiproliferative activity in cancerous cells, SW480 (inhibition of cell growth); for inhibition at 3.3 µM: Compound concentration: 3.3 μM; for inhibition at 10 µM: Compound concentration: 10 μM. A digest of the protocol: as §1
Assay [3] deals with MDA-MB-231 (breast cancer). Description: Antiproliferative activity (CCK-8 cell viability), MDA-MB-231. As to conditions: Homo sapiens, 72 h, read-out: Antiproliferative activity in cancerous cells, MDA-MB-231 (inhibition of cell growth); for inhibition at 3.3 µM: Compound concentration: 3.3 μM; for inhibition at 10 µM: Compound concentration: 10 μM. A digest of the protocol: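 In this CCK-8 viability assay, MDA-MB-231 cells maintained in Dulbecco's modified Eagle's medium containing 10% fetal bovine serum were placed in 96-well plates (2,000-5,000 cells/well) and treated with compound for 72 h at 37° C. A 4 h incubation with 10 μL CCK-8 followed, plates were read at 450 nm, and viability was expressed against DMSO vehicle wells across replicates.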

In assay [4] the test system is alpha-smooth muscle actin (α-SMA). Description: Inhibition of TGF-β induced expression of alpha-smooth muscle actin (α-SMA) in CFSC cells (western blot). As to conditions: compound at 10 μM, TGF-β (10 ng/mL), 24 hours, band intensity vs TGF-β only. A digest of the protocol: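 Values are percent reduction of α-SMA band intensity relative to cells given TGF-β alone, quantified by Western blot densitometry with β-actin probed. Compound was applied at 10 μM alongside 10 ng/mL TGF-β to serum-free CFSC cultures for 24 h at 37 °C.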
(In western blotting, separated proteins are transferred to a membrane and probed.)

Assay [5] deals with A549 (lung adenocarcinoma). Briefly: Antiproliferative activity (CCK-8 cell viability), A549. As to conditions: Homo sapiens, 72 h, read-out: Antiproliferative activity in cancerous cells, A549 (inhibition of cell growth); for inhibition at 3.3 µM: Compound concentration: 3.3 μM; for inhibition at 10 µM: Compound concentration: 10 μM. A digest of the protocol: as §1
In assay [6] the test system is B16F10 (malignant melanoma). Description: Antiproliferative activity (CCK-8 cell viability), B16F10. As to conditions: Mus musculus, 72 h, read-out: Antiproliferative activity in cancerous cells, B16F10 (inhibition of cell growth); for inhibition at 3.3 µM: B16-F10, Compound concentration: 3.3 μM; for inhibition at 10 µM: B16-F10, Compound concentration: 10 μM. A digest of the protocol:
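Attached B16F10 cells in 96-well plates were incubated with compound at 37° C for 72 h, followed by 10 μL CCK-8 reagent per well and a further 4 h incubation. A multi-well plate reader measured absorbance at 450 nm. Percent viability across replicates was calculated against DMSO vehicle-treated cells.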

Assay [7] deals with A431 (epidermoid carcinoma). Description: Antiproliferative activity (CCK-8 cell viability), A431. As to conditions: Homo sapiens, 72 h, read-out: Antiproliferative activity in cancerous cells, A431 (inhibition of cell growth); for inhibition at 3.3 µM: A-431, Compound concentration: 3.3 μM; for inhibition at 10 µM: A-431, Compound concentration: 10 μM. A digest of the protocol:
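Cell viability of compound-treated A431 cells was measured with a Cell Counting Kit-8. Each well received 10 μL of CCK-8 after 72 h of compound exposure, followed by 4 h incubation at 37° C. and a 450 nm plate-reader measurement. Percent viability was calculated relative to DMSO controls across replicates.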

Assay [8] deals with HepG2 (liver cancer). Description: Antiproliferative activity (CCK-8 cell viability), HepG2. As to conditions: Homo sapiens, 72 h; for inhibition at 3.3 µM: Compound concentration: 3.3 μM; for inhibition at 3.3 µM / inhibition at 10 µM: read-out: Antiproliferative activity in cancerous cells, HepG2 (inhibition of cell growth); for inhibition at 10 µM: Compound concentration: 10 μM. A digest of the protocol: as §1

`O=C(O)CC1=C(Cc2ccc(C(F)(F)F)cc2)/C(=C/c2cccc(COc3ccccc3)c2)c2ccc(F)cc21` [A10, (Z)-2-(5-Fluoro-1-(3-(phenoxymethyl)benzylidene)-2-(4-(trifluoromethyl)-benzyl)-1H-inden-3-yl)acetic acid]: the inhibition at 3.3 µM was at least 50% in assay [1]; at least 50% in assay [2]; at least 50% in assay [3]; 30 to 50% in assay [5]; at least 50% in assay [6]; at least 50% in assay [7]. Further, in assay [8], the inhibition at 3.3 µM was at least 50%. Besides, the inhibition at 10 µM was at least 50% in assay [1]; at least 50% in assay [2]; at least 50% in assay [3]; over 80% in assay [4]; at least 50% in assay [5]; at least 50% in assay [6]. Also, the inhibition at 10 µM in assay [7] and in assay [8] was at least 50% in each case.

For `O=C(O)CC1=C/C(=C/c2cccc(COc3ccccc3)c2)c2ccc(F)cc21` [A8, (Z)-2-(5-Fluoro-1-(3-(phenoxymethyl)benzylidene)-1H-inden-3-yl)acetic acid], the inhibition at 3.3 µM in assay [1] is at least 50%; in assay [2], under 30%; in assay [3] it was 30 to 50%; in assay [5] it was 30 to 50%; in assay [6] it was 30 to 50%; in assay [7], under 30%. In assay [8], the inhibition at 3.3 µM is 30 to 50%. The inhibition at 10 µM in assay [1] is at least 50%; in assay [2] it was 30 to 50%; in assay [3], at least 50%; in assay [4], over 80%; in assay [5], at least 50%; in assay [6], at least 50%. For the same compound, the inhibition at 10 µM in assay [7] and in assay [8] was 30 to 50% in each case.

Consider `COc1ccc2c(c1)/C(=C\c1ccc(OCc3ccccc3)cc1)C=C2CC(=O)O` [A9, (Z)-2-(1-(4-(Benzyloxy)benzylidene)-6-methoxy-1H-inden-3-yl)acetic acid], for which the inhibition at 3.3 µM was under 30% in assay [1]; 30 to 50% in assay [2]; under 30% in assay [3]; 30 to 50% in assay [5]; under 30% in assay [6]; 30 to 50% in assay [7]. In assay [8], the inhibition at 3.3 µM is under 30%. Further, the inhibition at 10 µM in assay [1] is 30 to 50%; in assay [2], at least 50%; in assay [3] it was at least 50%; in assay [4], over 80%; in assay [5], at least 50%; in assay [6] it was under 30%. The inhibition at 10 µM is at least 50% in assay [7] and under 30% in assay [8]. Further, in assay [8] (Compound concentration: 30 μM, read-out: Antiproliferative activity in cancerous cells, HepG2), the inhibition at 30 µM lay in the range of 30 to 50%.

As for `CC1=C(Cc2noc(=O)[nH]2)c2cc(F)ccc2/C1=C\c1ccc(Oc2ccc(F)cc2)cc1` [C26, (Z)-3-((5-Fluoro-1-(4-(4-fluorophenoxy)benzylidene)-2-methyl-1H-inden-3-yl)-methyl)-1,2,4-oxadiazol-5(4H)-one], the inhibition at 3.3 µM in assay [1] is under 30%; in assay [2] it was under 30%; in assay [3], at least 50%; in assay [5], 30 to 50%; in assay [6], under 30%; in assay [7] it was under 30%. Also, the inhibition at 3.3 µM in assay [8] was under 30%. Further, the inhibition at 10 µM in assay [1] is at least 50%; in assay [2] it was at least 50%; in assay [3], at least 50%; in assay [4] it was over 80%; in assay [5] it was at least 50%; in assay [6] it was at least 50%. For the same compound, the inhibition at 10 µM in assay [7] and in assay [8] was at least 50% throughout.

The values are drawn from patent publication US20260184663A1, “INDENE COMPOUNDS, PHARMACEUTICAL COMPOSITIONS THEREOF, AND THEIR THERAPEUTIC APPLICATIONS” (NucMito Pharmaceuticals co. Ltd., priority 2022, published 2026).
